From ChEMBL document CHEMBL1201862, “PubChem BioAssay data set” (2004)
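Results reflect a 48-hour exposure of cells in 96-well plates to compound at five concentrations. Here, GI50 denotes the concentration required for 50% inhibition of growth.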 Activity calls are given as the source filed them. Cut-off read from the data, not from the text of the source: active = GI50 up to about 1.1 µM and inactive = higher.

Assays:
Experiment in all cases: DTP human tumour cell line panel, 48 h
786-0 = tested on: 786-0
ACHN = tested on: ACHN
HCT-116 = tested on: HCT-116
HCT-15 = tested on: HCT-15
LOX IMVI = tested on: LOX IMVI
MDA-N = tested on: MDA-N
NCI-H226 = tested on: NCI-H226
NCI-H23 = tested on: NCI-H23
NCI-H460 = tested on: NCI-H460
OVCAR-3 = tested on: OVCAR-3
OVCAR-5 = tested on: OVCAR-5
PC-3 = tested on: PC-3
RPMI-8226 = tested on: RPMI-8226
SF-295 = tested on: SF-295
SF-539 = tested on: SF-539
SR = tested on: SR
SW-620 = tested on: SW-620
U-251 = tested on: U-251
HOP-62 = tested on: HOP-62
NCI-H522 = tested on: NCI-H522

SMILES	GI50 (786-0)	GI50 (ACHN)	GI50 (HCT-116)	GI50 (HCT-15) [µM]	GI50 (LOX IMVI)	GI50 (MDA-N)	GI50 (NCI-H226)	GI50 (NCI-H23)	GI50 (NCI-H460)	GI50 (OVCAR-3)	GI50 (OVCAR-5)	GI50 (PC-3)	GI50 (RPMI-8226)	GI50 (SF-295)	GI50 (SF-539)	GI50 (SR)	GI50 (SW-620)	GI50 (U-251)	GI50 (HOP-62)	GI50 (NCI-H522)
CC(=O)c1cnc2oc3ccc(O)cc3c2c1-c1ccccc1	39.4 µM (inactive)	21.1 µM (inactive)	57.1 µM (inactive)	58.1	99.1 µM (inactive)	40.1 µM (inactive)	35.6 µM (inactive)	46.1 µM (inactive)	33.5 µM (inactive)	17.3 µM (inactive)	71.6 µM (inactive)	21.4 µM (inactive)	18.8 µM (inactive)	30 µM (inactive)	15 µM (inactive)	33.3 µM (inactive)	> 100 µM (inactive)	52.4 µM (inactive)		
O=C1CC(=O)NC(NNS(=O)(=O)c2ccc(Cl)cc2)=N1	> 100 µM (inactive)	> 100 µM (inactive)	> 100 µM (inactive)	> 100		> 100 µM (inactive)	> 100 µM (inactive)	> 100 µM (inactive)	> 100 µM (inactive)	> 100 µM (inactive)	> 100 µM (inactive)	> 100 µM (inactive)	> 100 µM (inactive)	> 100 µM (inactive)	> 100 µM (inactive)	> 100 µM (inactive)	> 100 µM (inactive)	> 100 µM (inactive)	> 100 µM (inactive)	> 100 µM (inactive)
O=C1Nc2c(Cl)cc(Cl)cc2/C1=N/NC(=O)c1ccncc1	17.4 µM (inactive)	38 µM (inactive)	19.1 µM (inactive)	32.1	16.9 µM (inactive)	15.7 µM (inactive)	47.2 µM (inactive)	22.8 µM (inactive)	46.7 µM (inactive)	15.5 µM (inactive)	61 µM (inactive)	15.7 µM (inactive)		38.5 µM (inactive)	21.6 µM (inactive)	14.7 µM (inactive)	28.4 µM (inactive)	18.1 µM (inactive)	25.8 µM (inactive)	
C=CCN1C(=O)CC(=O)N(NC2=NNC3(C(=O)N2)c2ccccc2-c2ccccc23)C1=S	38.5 µM (inactive)	34.4 µM (inactive)	28.4 µM (inactive)	35.7	42.7 µM (inactive)	> 100 µM (inactive)	13.8 µM (inactive)	29.2 µM (inactive)	26.1 µM (inactive)	28.4 µM (inactive)	53.7 µM (inactive)	23.9 µM (inactive)		37 µM (inactive)	59.4 µM (inactive)	15.6 µM (inactive)	38.5 µM (inactive)	38 µM (inactive)	26.7 µM (inactive)	32.6 µM (inactive)
CCOC(=O)N(C)C(=C(F)F)C(F)(F)F	21.7 µM (inactive)	> 10 µM (inactive)	20.4 µM (inactive)	16.3	23 µM (inactive)	18.5 µM (inactive)	19.2 µM (inactive)	20.5 µM (inactive)	28.6 µM (inactive)	36 µM (inactive)	35.5 µM (inactive)	30.9 µM (inactive)	16.4 µM (inactive)	57.5 µM (inactive)	24.5 µM (inactive)	3.95 µM (inactive)	21.2 µM (inactive)	30.4 µM (inactive)	25.2 µM (inactive)	
CCN1C(NCCO)=NS(=O)(=O)c2ccccc21	> 100 µM (inactive)	> 100 µM (inactive)	> 100 µM (inactive)	> 100	> 100 µM (inactive)	> 100 µM (inactive)	> 100 µM (inactive)	> 100 µM (inactive)	> 100 µM (inactive)	> 100 µM (inactive)	> 100 µM (inactive)	> 100 µM (inactive)		> 100 µM (inactive)	> 100 µM (inactive)	> 100 µM (inactive)	> 100 µM (inactive)	> 100 µM (inactive)	> 100 µM (inactive)	> 100 µM (inactive)
CC(C)(C)OC(=O)Cn1ncn(NC(=O)Cc2ccccc2)c1=O	> 10 µM (inactive)	> 10 µM (inactive)	> 10 µM (inactive)	> 10	> 10 µM (inactive)	> 10 µM (inactive)	> 10 µM (inactive)	> 10 µM (inactive)	> 10 µM (inactive)	> 10 µM (inactive)	> 10 µM (inactive)	> 10 µM (inactive)		> 10 µM (inactive)	> 10 µM (inactive)	> 10 µM (inactive)	> 10 µM (inactive)	> 10 µM (inactive)	> 10 µM (inactive)	> 10 µM (inactive)
C=CCCCC1SC2=C(CC)CCCN2C1=O (stereo unspecified)	> 100 µM (inactive)	89.1 µM (inactive)	53.8 µM (inactive)	40.2	89.7 µM (inactive)	70.1 µM (inactive)	> 100 µM (inactive)	49.1 µM (inactive)		78.7 µM (inactive)	> 100 µM (inactive)	45.2 µM (inactive)	38.2 µM (inactive)	64 µM (inactive)	> 100 µM (inactive)	57.7 µM (inactive)	77.4 µM (inactive)	85.1 µM (inactive)	> 100 µM (inactive)	35.1 µM (inactive)
COC(=O)c1ccc2c(c1)CC1(C2)Cc2ccc3c(c2C1)CCC3 (stereo unspecified)	23.2 µM (inactive)	57 µM (inactive)	23.6 µM (inactive)	20.1	20.8 µM (inactive)	3.63 µM (inactive)	47.6 µM (inactive)	57.3 µM (inactive)		80.2 µM (inactive)	> 100 µM (inactive)	6.98 µM (inactive)	21.3 µM (inactive)	24.9 µM (inactive)	47.8 µM (inactive)	20.8 µM (inactive)	14.4 µM (inactive)	28.7 µM (inactive)	29.9 µM (inactive)	20.7 µM (inactive)
COC1CC(OC2C(C)OC(OC3C(C)OC(OC4C(O)CC(O[C@H]5CC[C@@]6(C)C(=CC[C@]7(O)[C@@H]6C[C@@H](OC(=O)/C=C/c6ccccc6)[C@@]6(C)[C@]7(O)CC[C@@]6(O)C(C)=O)C5)OC4C)CC3OC)CC2OC)OC(C)C1O (stereo partly specified)	> 6.25 µM (inactive)	> 6.25 µM (inactive)	> 6.25 µM (inactive)	> 6.25	> 6.25 µM (inactive)	> 6.25 µM (inactive)	> 6.25 µM (inactive)	> 6.25 µM (inactive)		> 6.25 µM (inactive)	> 6.25 µM (inactive)	> 6.25 µM (inactive)	> 6.25 µM (inactive)	> 6.25 µM (inactive)	> 6.25 µM (inactive)	> 6.25 µM (inactive)	> 6.25 µM (inactive)	> 6.25 µM (inactive)	> 6.25 µM (inactive)	> 6.25 µM (inactive)
COC1CCC(=O)N1CN(C(C)=O)c1ccc(C)cc1 (stereo unspecified)	> 100 µM (inactive)	> 100 µM (inactive)	> 100 µM (inactive)	> 100	> 100 µM (inactive)	> 100 µM (inactive)	> 100 µM (inactive)	> 100 µM (inactive)	> 100 µM (inactive)	> 100 µM (inactive)	> 100 µM (inactive)	> 100 µM (inactive)	> 100 µM (inactive)	> 100 µM (inactive)	> 100 µM (inactive)	> 100 µM (inactive)	> 100 µM (inactive)	> 100 µM (inactive)	> 100 µM (inactive)	
O=C1CCCCC(=O)OC2(CCCCC2=O)CC1 (stereo unspecified)	> 100 µM (inactive)	> 100 µM (inactive)	> 100 µM (inactive)	> 100		> 100 µM (inactive)	> 100 µM (inactive)	> 100 µM (inactive)	> 100 µM (inactive)	> 100 µM (inactive)	> 100 µM (inactive)	> 100 µM (inactive)	> 100 µM (inactive)	> 100 µM (inactive)	> 100 µM (inactive)	> 100 µM (inactive)	> 100 µM (inactive)	> 100 µM (inactive)	> 100 µM (inactive)	> 100 µM (inactive)
CC(=O)Nc1cc(Nc2cc(O)nc(O)n2)ccc1C	> 100 µM (inactive)	> 100 µM (inactive)	> 100 µM (inactive)	> 100	> 100 µM (inactive)	> 100 µM (inactive)	> 100 µM (inactive)		> 100 µM (inactive)	> 100 µM (inactive)	> 100 µM (inactive)	> 100 µM (inactive)	> 100 µM (inactive)	> 100 µM (inactive)	> 100 µM (inactive)	> 100 µM (inactive)	> 100 µM (inactive)	> 100 µM (inactive)	> 100 µM (inactive)	
O=C1Nc2ccc(Br)cc2/C1=N/NC(=S)Nc1ccc(F)cc1	7.67 µM (inactive)	3.43 µM (inactive)	3.87 µM (inactive)	1.37	4.7 µM (inactive)	2.98 µM (inactive)	9.84 µM (inactive)	0.794 µM (active)	1.59 µM (inactive)	13.3 µM (inactive)	43.2 µM (inactive)	5.27 µM (inactive)		3.69 µM (inactive)	9.91 µM (inactive)	1.71 µM (inactive)	4.78 µM (inactive)	3.53 µM (inactive)	8.07 µM (inactive)	10.5 µM (inactive)
CCN(CC)CCC(=O)/C=C/c1ccc(Cl)c(Cl)c1	3.31 µM (inactive)	3.03 µM (inactive)	1.71 µM (inactive)	3.66		2.63 µM (inactive)	> 10 µM (inactive)	> 10 µM (inactive)	4.94 µM (inactive)	8.61 µM (inactive)	7.93 µM (inactive)	4.31 µM (inactive)	0.127 µM (active)	> 10 µM (inactive)		2.83 µM (inactive)	2.55 µM (inactive)	4.76 µM (inactive)	> 10 µM (inactive)	1.58 µM (inactive)
